Results published in ChEMBL document CHEMBL4011590, “Structure-activity relationship studies on 3,5-dinitrophenyl tetrazoles as antitubercular agents” (Eur J Med Chem, 2017).
Converted amounts (≈) assume the structure as drawn.

Tests used:
[1] = test system: Mycobacterium tuberculosis; assay: Antimycobacterial activity against Mycobacterium tuberculosis H37Rv CNCTC My 331/88 after 14 days by micromethod; assay type: functional; conditions: H37Rv CNCTC My 331/88, 336 h
[2] = test system: Mycobacterium tuberculosis; assay: Antimycobacterial activity against Mycobacterium tuberculosis H37Rv CNCTC My 331/88 after 21 days by micromethod; assay type: functional; conditions: H37Rv CNCTC My 331/88, 504 h
Mycobacterium avium [3] = assay: Antimycobacterial activity against Mycobacterium avium CNCTC My 330/80 after 14 days by micromethod; assay type: functional; conditions: CNCTC My 330/80, 336 h
Mycobacterium avium [4] = assay: Antimycobacterial activity against Mycobacterium avium CNCTC My 330/80 after 21 days by micromethod; assay type: functional; conditions: CNCTC My 330/80, 504 h
Mycobacterium kansasii [5] = assay: Antimycobacterial activity against Mycobacterium kansasii CNCTC My 235/80 after 7 days by micromethod; assay type: functional; conditions: CNCTC My 235/80, 168 h
Mycobacterium kansasii [6] = assay: Antimycobacterial activity against Mycobacterium kansasii CNCTC My 235/80 after 14 days by micromethod; assay type: functional; conditions: CNCTC My 235/80, 336 h
Mycobacterium kansasii [7] = assay: Antimycobacterial activity against Mycobacterium kansasii CNCTC My 235/80 after 21 days by micromethod; assay type: functional; conditions: CNCTC My 235/80, 504 h
Mycobacterium kansasii [8] = assay: Antimycobacterial activity against Mycobacterium kansasii isolate 6509/96 after 7 days by micromethod; assay type: functional; conditions: isolate 6509/96, 168 h
Mycobacterium kansasii [9] = assay: Antimycobacterial activity against Mycobacterium kansasii isolate 6509/96 after 14 days by micromethod; assay type: functional; conditions: isolate 6509/96, 336 h
Mycobacterium kansasii [10] = assay: Antimycobacterial activity against Mycobacterium kansasii isolate 6509/96 after 21 days by micromethod; assay type: functional; conditions: isolate 6509/96, 504 h
CHO-K1 = assay: Cytotoxicity against CHOK1 cells after 24 hrs by MTT assay; assay type: cell-based; conditions: Cricetulus griseus, CHO-K1, 24 h
Staphylococcus aureus [11] = assay: Antibacterial activity against Staphylococcus aureus ATCC 6538 after 24 hrs by broth microdilution method; assay type: functional; conditions: ATCC 6538, 24 h
Staphylococcus aureus [12] = assay: Antibacterial activity against Staphylococcus aureus ATCC 6538 after 48 hrs by broth microdilution method; assay type: functional; conditions: ATCC 6538, 48 h
Staphylococcus aureus [13] = assay: Antibacterial activity against methicillin-resistant Staphylococcus aureus HK5996/08 after 24 hrs by broth microdilution method; assay type: functional; conditions: HK5996/08, 24 h
Staphylococcus aureus [14] = assay: Antibacterial activity against methicillin-resistant Staphylococcus aureus HK5996/08 after 48 hrs by broth microdilution method; assay type: functional; conditions: HK5996/08, 48 h
[15] = test system: Staphylococcus epidermidis; assay: Antibacterial activity against Staphylococcus epidermidis HK6966/08 after 24 hrs by broth microdilution method; assay type: functional; conditions: HK6966/08, 24 h
[16] = test system: Staphylococcus epidermidis; assay: Antibacterial activity against Staphylococcus epidermidis HK6966/08 after 48 hrs by broth microdilution method; assay type: functional; conditions: HK6966/08, 48 h
Enterococcus sp. [17] = assay: Antibacterial activity against Enterococcus sp. HK14365/08 after 24 hrs by broth microdilution method; assay type: functional; conditions: HK14365/08, 24 h
Enterococcus sp. [18] = assay: Antibacterial activity against Enterococcus sp. HK14365/08 after 48 hrs by broth microdilution method; assay type: functional; conditions: HK14365/08, 48 h
Escherichia coli [19] = assay: Antibacterial activity against Escherichia coli ATCC 8739 after 24 hrs by broth microdilution method; assay type: functional; conditions: ATCC 8739, 24 h
Escherichia coli [20] = assay: Antibacterial activity against Escherichia coli ATCC 8739 after 48 hrs by broth microdilution method; assay type: functional; conditions: ATCC 8739, 48 h
Klebsiella pneumoniae [21] = assay: Antibacterial activity against Klebsiella pneumoniae HK11750/08 after 24 hrs by broth microdilution method; assay type: functional; conditions: HK11750/08, 24 h
Klebsiella pneumoniae [22] = assay: Antibacterial activity against Klebsiella pneumoniae HK11750/08 after 48 hrs by broth microdilution method; assay type: functional; conditions: HK11750/08, 48 h
Klebsiella pneumoniae [23] = assay: Antibacterial activity against extended spectrum beta-lactamase producing Klebsiella pneumoniae HK14368/08 after 24 hrs by broth microdilution method; assay type: functional; conditions: HK14368/08, 24 h
Klebsiella pneumoniae [24] = assay: Antibacterial activity against extended spectrum beta-lactamase producing Klebsiella pneumoniae HK14368/08 after 48 hrs by broth microdilution method; assay type: functional; conditions: HK14368/08, 48 h
Pseudomonas aeruginosa [25] = assay: Antibacterial activity against Pseudomonas aeruginosa ATCC 9027 after 24 hrs by broth microdilution method; assay type: functional; conditions: ATCC 9027, 24 h
Pseudomonas aeruginosa [26] = assay: Antibacterial activity against Pseudomonas aeruginosa ATCC 9027 after 48 hrs by broth microdilution method; assay type: functional; conditions: ATCC 9027, 48 h
Candida albicans [27] = assay: Antifungal activity against Candida albicans ATCC 44859 after 24 hrs by broth microdilution method; assay type: functional; conditions: ATCC 44859, 24 h
Candida albicans [28] = assay: Antifungal activity against Candida albicans ATCC 44859 after 48 hrs by broth microdilution method; assay type: functional; conditions: ATCC 44859, 48 h
Candida tropicalis [29] = assay: Antifungal activity against Candida tropicalis 156 after 24 hrs by broth microdilution method; assay type: functional; conditions: Candida tropicalis, 156, 24 h
Candida tropicalis [30] = assay: Antifungal activity against Candida tropicalis 156 after 48 hrs by broth microdilution method; assay type: functional; conditions: Candida tropicalis, 156, 48 h
Pichia kudriavzevii [31] = assay: Antifungal activity against Candida krusei E28 after 24 hrs by broth microdilution method; assay type: functional; conditions: E28, 24 h
Pichia kudriavzevii [32] = assay: Antifungal activity against Candida krusei E28 after 48 hrs by broth microdilution method; assay type: functional; conditions: E28, 48 h
Nakaseomyces glabratus [33] = assay: Antifungal activity against Candida glabrata 20/I after 24 hrs by broth microdilution method; assay type: functional
Nakaseomyces glabratus [34] = assay: Antifungal activity against Candida glabrata 20/I after 48 hrs by broth microdilution method; assay type: functional
Trichosporon asahii [35] = assay: Antifungal activity against Trichosporon asahii 1188 after 24 hrs by broth microdilution method; assay type: functional; conditions: Trichosporon asahii, 1188, 24 h
Trichosporon asahii [36] = assay: Antifungal activity against Trichosporon asahii 1188 after 48 hrs by broth microdilution method; assay type: functional; conditions: Trichosporon asahii, 1188, 48 h
Aspergillus fumigatus [37] = assay: Antifungal activity against Aspergillus fumigatus 231 after 24 hrs by broth microdilution method; assay type: functional; conditions: Aspergillus fumigatus, 231, 24 h
Aspergillus fumigatus [38] = assay: Antifungal activity against Aspergillus fumigatus 231 after 48 hrs by broth microdilution method; assay type: functional; conditions: Aspergillus fumigatus, 231, 48 h
Lichtheimia corymbifera [39] = assay: Antifungal activity against Absidia corymbifera 272 after 24 hrs by broth microdilution method; assay type: functional; conditions: Lichtheimia corymbifera, 272, 24 h
Lichtheimia corymbifera [40] = assay: Antifungal activity against Absidia corymbifera 272 after 48 hrs by broth microdilution method; assay type: functional; conditions: Lichtheimia corymbifera, 272, 48 h
[41] = test system: Trichophyton mentagrophytes; assay: Antifungal activity against Trichophyton mentagrophytes 445 after 72 hrs by broth microdilution method; assay type: functional; conditions: Trichophyton mentagrophytes, 445, 72 h
[42] = test system: Trichophyton mentagrophytes; assay: Antifungal activity against Trichophyton mentagrophytes 445 after 120 hrs by broth microdilution method; assay type: functional; conditions: Trichophyton mentagrophytes, 445, 120 h

Work on `Cc1ccc(Cn2nnc(-c3cc([N+](=O)[O-])cc([N+](=O)[O-])c3)n2)cc1` yielded an MIC99 [1] of 0.125 µM (≈ 0.0425 µg/mL), an MIC99 [2] of 0.125 µM (≈ 0.0425 µg/mL) and an MIC99 (Mycobacterium avium [3]) of 8 µM (≈ 2.72 µg/mL). The MIC99 (Mycobacterium avium [4]) was 16 µM (≈ 5.44 µg/mL), the MIC99 (Mycobacterium kansasii [5]) was 0.5 µM (≈ 0.17 µg/mL) and the MIC99 (Mycobacterium kansasii [6]) was 1 µM (≈ 0.34 µg/mL). It also gave an MIC99 (Mycobacterium kansasii [7]) of 1 µM (≈ 0.34 µg/mL), an MIC99 (Mycobacterium kansasii [8]) of 0.25 µM (≈ 0.0851 µg/mL) and an MIC99 (Mycobacterium kansasii [9]) of 0.5 µM (≈ 0.17 µg/mL). For the same molecule, the MIC99 (Mycobacterium kansasii [10]) was 0.5 µM (≈ 0.17 µg/mL), the IC50 (CHO-K1) was 200 µM and the MIC (Staphylococcus aureus [11]) was 31.2 µM (≈ 10.6 µg/mL). The MIC (Staphylococcus aureus [12]) was 31.2 µM (≈ 10.6 µg/mL), the MIC (Staphylococcus aureus [13]) was > 500 µM and the MIC (Staphylococcus aureus [14]) was > 500 µM. The MIC [15] was 62.5 µM (≈ 21.3 µg/mL), the MIC [16] was 62.5 µM (≈ 21.3 µg/mL) and the MIC (Enterococcus sp. [17]) was > 500 µM. The MIC (Enterococcus sp. [18]) was > 500 µM, the MIC (Escherichia coli [19]) was > 500 µM and the MIC (Escherichia coli [20]) was > 500 µM. For the same molecule, the MIC (Klebsiella pneumoniae [21]) was > 500 µM, the MIC (Klebsiella pneumoniae [22]) was > 500 µM and the MIC (Klebsiella pneumoniae [23]) was > 500 µM. The MIC (Klebsiella pneumoniae [24]) was > 500 µM, the MIC (Pseudomonas aeruginosa [25]) was > 500 µM and the MIC (Pseudomonas aeruginosa [26]) was > 500 µM. The MIC (Candida albicans [27]) was > 500 µM, the MIC (Candida albicans [28]) was > 500 µM and the MIC (Candida tropicalis [29]) was > 500 µM. The MIC (Candida tropicalis [30]) was > 500 µM, the MIC (Pichia kudriavzevii [31]) was > 500 µM and the MIC (Pichia kudriavzevii [32]) was > 500 µM. The MIC (Nakaseomyces glabratus [33]) was > 500 µM, the MIC (Nakaseomyces glabratus [34]) was > 500 µM and the MIC (Trichosporon asahii [35]) was > 500 µM. For the same molecule, the MIC (Trichosporon asahii [36]) was > 500 µM, the MIC (Aspergillus fumigatus [37]) was > 500 µM and the MIC (Aspergillus fumigatus [38]) was > 500 µM. The MIC (Lichtheimia corymbifera [39]) was > 500 µM, the MIC (Lichtheimia corymbifera [40]) was > 500 µM and the MIC [41] was > 500 µM. For the same molecule, the MIC [42] was > 500 µM.

`Cc1ccc(Cn2nnnc2-c2cc([N+](=O)[O-])cc([N+](=O)[O-])c2)cc1` was tested, and the MIC99 [1] was 1 µM (≈ 0.34 µg/mL), the MIC99 [2] was 2 µM (≈ 0.681 µg/mL) and the MIC99 (Mycobacterium avium [3]) was 8 µM (≈ 2.72 µg/mL). It also gave an MIC99 (Mycobacterium avium [4]) of 16 µM (≈ 5.44 µg/mL), an MIC99 (Mycobacterium kansasii [5]) of 1 µM (≈ 0.34 µg/mL) and an MIC99 (Mycobacterium kansasii [6]) of 2 µM (≈ 0.681 µg/mL). It also gave an MIC99 (Mycobacterium kansasii [7]) of 4 µM (≈ 1.36 µg/mL), an MIC99 (Mycobacterium kansasii [8]) of 2 µM (≈ 0.681 µg/mL) and an MIC99 (Mycobacterium kansasii [9]) of 4 µM (≈ 1.36 µg/mL). For the same molecule, the MIC99 (Mycobacterium kansasii [10]) was 4 µM (≈ 1.36 µg/mL), the IC50 (CHO-K1) was 28 µM and the MIC (Staphylococcus aureus [11]) was 125 µM (≈ 42.5 µg/mL). It also gave an MIC (Staphylococcus aureus [12]) of 125 µM (≈ 42.5 µg/mL), an MIC (Staphylococcus aureus [13]) of 125 µM (≈ 42.5 µg/mL) and an MIC (Staphylococcus aureus [14]) of 125 µM (≈ 42.5 µg/mL). It also gave an MIC [15] of 250 µM (≈ 85.1 µg/mL), an MIC [16] of 250 µM (≈ 85.1 µg/mL) and an MIC (Enterococcus sp. [17]) of 250 µM (≈ 85.1 µg/mL). It also gave an MIC (Enterococcus sp. [18]) of 250 µM (≈ 85.1 µg/mL), an MIC (Escherichia coli [19]) of 500 µM (≈ 170 µg/mL) and an MIC (Escherichia coli [20]) of 500 µM (≈ 170 µg/mL). It also gave an MIC (Klebsiella pneumoniae [21]) of 500 µM (≈ 170 µg/mL), an MIC (Klebsiella pneumoniae [22]) of 500 µM (≈ 170 µg/mL) and an MIC (Klebsiella pneumoniae [23]) of 500 µM (≈ 170 µg/mL). The MIC (Klebsiella pneumoniae [24]) was 500 µM (≈ 170 µg/mL), the MIC (Pseudomonas aeruginosa [25]) was > 500 µM and the MIC (Pseudomonas aeruginosa [26]) was > 500 µM. The MIC (Candida albicans [27]) was > 500 µM, the MIC (Candida albicans [28]) was > 500 µM and the MIC (Candida tropicalis [29]) was > 500 µM. The MIC (Candida tropicalis [30]) was > 500 µM, the MIC (Pichia kudriavzevii [31]) was > 500 µM and the MIC (Pichia kudriavzevii [32]) was > 500 µM. For the same molecule, the MIC (Nakaseomyces glabratus [33]) was > 500 µM, the MIC (Nakaseomyces glabratus [34]) was > 500 µM and the MIC (Trichosporon asahii [35]) was > 500 µM. The MIC (Trichosporon asahii [36]) was > 500 µM, the MIC (Aspergillus fumigatus [37]) was > 500 µM and the MIC (Aspergillus fumigatus [38]) was > 500 µM. The MIC (Lichtheimia corymbifera [39]) was > 500 µM, the MIC (Lichtheimia corymbifera [40]) was > 500 µM and the MIC [41] was > 500 µM. For the same molecule, the MIC [42] was > 500 µM.
